Results reported in patent US8759535B2, “Substituted fused imidazole derivatives, pharmaceutical compositions, and methods of use thereof” (High Point Pharmaceuticals, LLC, priority 2010, dated 2014).
Where a name gives a salt, the structure may show the parent alone.

tested on: HMOX1; experiment: HMOX1 Protein Assay (immunostaining of HO-1 in NHLF cells, GE InCell 1000); assay type: cell-based; conditions: Homo sapiens, fold change above DMSO treated cells, 3 μM compound (asterisk), 16 h
How it was run: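 Fold induction of HO-1 over vehicle, normally at 5 μM compound (asterisk marks 3 μM), in 0.8% DMSO medium. Normal human lung fibroblasts were treated 16 h, then paraformaldehyde-fixed, anti-HO-1/Alexa 488 stained with Hoechst, and read by high-content imaging.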

Going from `Cn1c(Nc2nc3ccc(Cl)cc3s2)nc2cc(C(=O)NCC(=O)N3CC[C@@H](O)C3)ccc21` [Example 400, 2-(6-Chloro-benzothiazol-2-ylamino)-1-methyl-1H-benzoimidazole-5-carboxylic acid [2-((R)-3-hydroxy-pyrrolidin-1-yl)-2-oxo-ethyl]-amide] to `Cn1c(Nc2nc3ccc(Cl)cc3s2)nc2cc(C(=O)NCCF)ccc21` [Example 209, 2-(6-Chloro-benzothiazol-2-ylamino)-1-methyl-1H-benzoimidazole-5-carboxylic acid (2-fluoro-ethyl)-amide], the fold induction at 3 µM falls from 15 to 14.2.

Compared with `Cn1c(Nc2nc3ccc(Cl)cc3s2)nc2cc(C(=O)NCCOCCN)ccc21` [Example 269, 2-(6-Chloro-benzothiazol-2-ylamino)-1-methyl-1H-benzoimidazole-5-carboxylic acid [2-(2-amino-ethoxy)-ethyl]-amide], `Cn1c(Nc2nc3ccc(C(F)(F)F)cc3s2)nc2cc(C(=O)NCCF)ccc21` [Example 210, 1-Methyl-2-(6-trifluoromethyl-benzothiazol-2-ylamino)-1H-benzoimidazole-5-carboxylic acid (2-fluoro-ethyl)-amide] is higher in fold induction at 3 µM: 19.9 for the first, 29.9 for the second.

Molecule `COC(C)(C)CNC(=O)c1ccc2c(c1)nc(Nc1nc3ccc(C(F)(F)F)cc3s1)n2C` [Example 208, 1-Methyl-2-(6-trifluoromethyl-benzothiazol-2-ylamino)-1H-benzoimidazole-5-carboxylic acid (2-methoxy-2-methyl-propyl)-amide] has a fold induction at 3 µM of 26.5.

same assay, conditions: Homo sapiens, fold change above DMSO treated cells, 5 μM compound, 16 h

Compared with `CCOCCNC(=O)c1cc2nc(Nc3nc4ccc(OC(F)(F)F)cc4s3)n(C)c2cc1OC` [Example 65, 6-Methoxy-1-methyl-2-(6-trifluoromethoxy-benzothiazol-2-ylamino)-1H-benzoimidazole-5-carboxylic acid (2-ethoxy-ethyl)-amide], `COCCOCCNC(=O)c1ccc2c(c1)nc(Nc1nc3ccc(OC(F)(F)F)cc3s1)n2C` [Example 260, 1-Methyl-2-(6-trifluoromethoxy-benzothiazol-2-ylamino)-1H-benzoimidazole-5-carboxylic acid [2-(2-methoxy-ethoxy)-ethyl]-amide] is higher in fold induction at 5 µM: 10.2 for the first, 27.1 for the second.

First: Cn1c(Nc2nc3ccc(Cl)cc3s2)nc2cc(C(=O)NCC(=O)N3CCS(=O)(=O)CC3)ccc21 [Example 424, 2-(6-Chloro-benzothiazol-2-ylamino)-1-methyl-1H-benzoimidazole-5-carboxylic acid [2-(1,1-dioxo-thiomorpholin-4-yl)-2-oxo-ethyl]-amide]
Second: CN(C)CC1CCN(C(=O)CNC(=O)c2ccc3c(c2)nc(Nc2nc4ccc(Cl)cc4s2)n3C)CC1 [Example 459, 2-(6-Chloro-benzothiazol-2-ylamino)-1-methyl-1H-benzoimidazole-5-carboxylic acid [2-(4-dimethylaminomethyl-piperidin-1-yl)-2-oxo-ethyl]-amide]
The fold induction at 5 µM of the first is lower: 24.9 for the first, 42 for the second.

Compared with `COCCn1c(Nc2nc3ccc(OC(F)(F)F)cc3s2)nc2cc(C(=O)NCCOCCO)ccc21` [Example 241, 1-(2-Methoxy-ethyl)-2-(6-trifluoromethoxy-benzothiazol-2-ylamino)-1H-benzoimidazole-5-carboxylic acid [2-(2-hydroxy-ethoxy)-ethyl]-amide], `Cn1c(Nc2nc3ccc(OC(F)(F)F)cc3s2)nc2cc(C(=O)NCCOCCO)cnc21` [Example 238, 3-Methyl-2-(6-trifluoromethoxy-benzothiazol-2-ylamino)-3H-imidazo[4,5-b]pyridine-6-carboxylic acid [2-(2-hydroxy-ethoxy)-ethyl]-amide] is higher in fold induction at 5 µM: 23.7 for the first, 33 for the second.

Going from `Cn1c(Nc2nc3ccc(OC(F)(F)F)cc3s2)nc2cc(C(=O)NC[C@@H](O)CO)ccc21` [Example 281, 1-Methyl-2-(6-trifluoromethoxy-benzothiazol-2-ylamino)-1H-benzoimidazole-5-carboxylic acid ((R)-2,3-dihydroxy-propyl)-amide] to `Cn1c(Nc2nc3ccc(OC(F)(F)F)cc3s2)nc2cc(C(=O)NC[C@H](O)CO)ccc21` [Example 280, 1-Methyl-2-(6-trifluoromethoxy-benzothiazol-2-ylamino)-1H-benzoimidazole-5-carboxylic acid ((S)-2,3-dihydroxy-propyl)-amide], the fold induction at 5 µM rises from 35.6 to 38.8.

First: CCn1c(Nc2nc3ccc(Cl)cc3s2)nc2cc(C(=O)NCC(C)(C)OC)ccc21 [Example 178, 2-(6-Chloro-benzothiazol-2-ylamino)-1-ethyl-1H-benzoimidazole-5-carboxylic acid (2-methoxy-2-methyl-propyl)-amide]
Second: CCNC(=O)c1ccc2c(c1)nc(Nc1nc3ccc(OC(F)(F)F)cc3s1)n2CC [Example 156, 1-Ethyl-2-(6-trifluoromethoxy-benzothiazol-2-ylamino)-1H-benzoimidazole-5-carboxylic acid ethylamide]
The fold induction at 5 µM of the first is higher: 25.7 for the first, 21 for the second.

Going from `Cn1c(Nc2nc3ccc(Cl)cc3s2)nc2cc(C(=O)NCCN3CCNC(=O)C3)ccc21` [Example 331, 2-(6-Chloro-benzothiazol-2-ylamino)-1-methyl-1H-benzoimidazole-5-carboxylic acid [2-(3-oxo-piperazin-1-yl)-ethyl]-amide] to `Cn1c(Nc2nc3ccc(Cl)cc3s2)nc2cc(C(=O)N[C@@H]3CCN(CCO)C3)ccc21` [Example 292, 2-(6-Chloro-benzothiazol-2-ylamino)-1-methyl-1H-benzoimidazole-5-carboxylic acid [(R)-1-(2-hydroxy-ethyl)-pyrrolidin-3-yl]-amide], the fold induction at 5 µM falls from 70.1 to 39.

Going from `Cn1c(Nc2nc3ccc(OC(F)(F)F)cc3s2)nc2cc(C(=O)NCC(=O)N3CCC[C@H]3CO)ccc21` [Example 406, 1-Methyl-2-(6-trifluoromethoxy-benzothiazol-2-ylamino)-1H-benzoimidazole-5-carboxylic acid [2-((S)-2-hydroxymethyl-pyrrolidin-1-yl)-2-oxo-ethyl]-amide] to `CN(CCO)C(=O)CNC(=O)c1ccc2c(c1)nc(Nc1nc3ccc(OC(F)(F)F)cc3s1)n2C` [Example 390, 1-Methyl-2-(6-trifluoromethoxy-benzothiazol-2-ylamino)-1H-benzoimidazole-5-carboxylic acid {[(2-hydroxy-ethyl)-methyl-carbamoyl]-methyl}-amide], the fold induction at 5 µM rises from 31 to 46.4.

First: Cn1c(Nc2nc3ccc(OC(F)(F)F)cc3s2)nc2cc(C(=O)NC3CCN(S(C)(=O)=O)CC3)ccc21 [Example 90, 1-Methyl-2-(6-trifluoromethoxy-benzothiazol-2-ylamino)-1H-benzoimidazole-5-carboxylic acid (1-methanesulfonyl-piperidin-4-yl)-amide]
Second: Cn1c(Nc2nc3ccc(OC(F)(F)F)cc3s2)nc2cc(C(=O)NCCN3CCCCC3)ccc21 [Example 333, 1-Methyl-2-(6-trifluoromethoxy-benzothiazol-2-ylamino)-1H-benzoimidazole-5-carboxylic acid (2-piperidin-1-yl-ethyl)-amide]
The fold induction at 5 µM of the first is lower: 8.1 for the first, 14.5 for the second.

First: CC(O)CNC(=O)c1cnc2c(c1)nc(Nc1nc3ccc(OC(F)(F)F)cc3s1)n2C (stereo not drawn) [Example 78, 3-Methyl-2-(6-trifluoromethoxy-benzothiazol-2-ylamino)-3H-imidazo[4,5-b]pyridine-6-carboxylic acid (2-hydroxy-propyl)-amide]
Second: CN(C)N(C)C(=O)c1ccc2c(c1)nc(Nc1nc3ccc(OC(F)(F)F)cc3s1)n2C [Example 106, 1-Methyl-2-(6-trifluoromethoxy-benzothiazol-2-ylamino)-1H-benzimidazole-5-carboxylic acid trimethylhydrazide]
The fold induction at 5 µM of the first is higher: 28.6 for the first, 23.8 for the second.

First: Cn1c(Nc2nc3ccc(Cl)cc3s2)nc2ccc(C(=O)NCCOCCO)cc21 [Example 288, 2-(6-Chloro-benzothiazol-2-ylamino)-3-methyl-3H-benzoimidazole-5-carboxylic acid [2-(2-hydroxy-ethoxy)-ethyl]-amide]
Second: Cn1c(Nc2nc3ccc(Cl)cc3s2)nc2cc(C(=O)NCCOCCC#N)ccc21 [Example 266, 2-(6-Chloro-benzothiazol-2-ylamino)-1-methyl-1H-benzoimidazole-5-carboxylic acid [2-(2-cyano-ethoxy)-ethyl]-amide]
The fold induction at 5 µM of the first is lower: 47 for the first, 57 for the second.

Compared with `Cn1c(Nc2nc3ccc(OC(F)(F)F)cc3s2)nc2ccc(-c3nc[nH]n3)cc21` [Example 197, [1-Methyl-6-(1H-1,2,4-triazol-3-yl)-1H-benzimidazol-2-yl]-(6-trifluoromethoxy-benzothiazol-2-yl)-amine], `Cn1c(Nc2nc3ccc(OC(F)(F)F)cc3s2)nc2cc(S(C)(=O)=O)ccc21` [Example 201, (5-Methanesulfonyl-1-methyl-1H-benzoimidazol-2-yl)-(6-trifluoromethoxy-benzothiazol-2-yl)-amine] is higher in fold induction at 5 µM: 18 for the first, 26.5 for the second.

Going from `CNCCOCCNC(=O)c1ccc2c(c1)nc(Nc1nc3ccc(Cl)cc3s1)n2C` [Example 272, 2-(6-Chloro-benzothiazol-2-ylamino)-1-methyl-1H-benzoimidazole-5-carboxylic acid [2-(2-methylamino-ethoxy)-ethyl]-amide hydrochloride] to `CN1CCC(NC(=O)CNC(=O)c2ccc3c(c2)nc(Nc2nc4ccc(Cl)cc4s2)n3C)CC1` [Example 386, 2-(6-Chloro-benzothiazol-2-ylamino)-1-methyl-1H-benzoimidazole-5-carboxylic acid [(1-methyl-piperidin-4-ylcarbamoyl)-methyl]-amide], the fold induction at 5 µM falls from 86.5 to 58.3.

In the case of `Cn1c(Nc2nc3ccc(OC(F)(F)F)cc3s2)nc2cc(C(=O)NCC3CNCCO3)ccc21` (stereo not drawn) [Example 56, 1-Methyl-2-(6-trifluoromethoxy-benzothiazol-2-ylamino)-1H-benzoimidazole-5-carboxylic acid (morpholin-2-ylmethyl)-amide hydrochloride], the fold induction at 5 µM is reported as 16.1.
